Tests used:
Assay in all cases: biochemical
Design in all cases: DiscoverX KinomeScan competition binding assay across human kinases; per cent of control at 10 and 100 uM
[1] = molecular target: PIK3CA (Homo sapiens, UniProt P42336); conditions: competition binding, % of control; read-out: Percent Control (100 uM Levosimendan)
Summary of the method: (§1)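 Binding is expressed as %control, normalised between positive and negative control signals. The compound (levosimendan) was tested at 10 μM and 100 μM in the DiscoverX KinomeScan competition binding format against human kinases.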

[2] = molecular target: T1, SIK (Homo sapiens, UniProt P57059); conditions: competition binding, % of control; read-out: Percent Control (100 uM Levosimendan)
T1 construct: gene SIK1
Summary of the method: as §1

[3] = molecular target: CDK7 (Homo sapiens, UniProt P50613); conditions: competition binding, % of control; read-out: Percent Control (100 uM Levosimendan)
Summary of the method: as §1

[4] = molecular target: EPHA2 (Homo sapiens, UniProt P29317); conditions: competition binding, % of control; read-out: Percent Control (100 uM Levosimendan)
Summary of the method: as §1

[5] = molecular target: TXK (Homo sapiens, UniProt P42681); conditions: competition binding, % of control; read-out: Percent Control (100 uM Levosimendan)
Summary of the method: as §1

[6] = molecular target: NEK1 (Homo sapiens, UniProt Q96PY6); conditions: competition binding, % of control; read-out: Percent Control (100 uM Levosimendan)
Summary of the method: as §1

[7] = molecular target: CAMKK1 (Homo sapiens, UniProt Q8N5S9); conditions: competition binding, % of control
Summary of the method: as §1

[8] = molecular target: CSF1R-autoinhibited (Homo sapiens, UniProt P07333); conditions: competition binding, % of control; read-out: Percent Control (100 uM Levosimendan)
Summary of the method: as §1

[9] = molecular target: FGFR4 (Homo sapiens, UniProt P22455); conditions: competition binding, % of control; read-out: Percent Control (100 uM Levosimendan)
Summary of the method: as §1

[10] = molecular target: T2, RSK3(Kin.Dom.2-C-terminal) (Homo sapiens, UniProt Q15349); conditions: competition binding, % of control; read-out: Percent Control (100 uM Levosimendan)
T2 construct: gene RPS6KA2; Kin.Dom.2-C-terminal
Summary of the method: as §1

[11] = molecular target: GRK1 (Homo sapiens, UniProt Q15835); conditions: competition binding, % of control; read-out: Percent Control (100 uM Levosimendan)
Summary of the method: as §1

[12] = molecular target: TGFBR2 (Homo sapiens, UniProt P37173); conditions: competition binding, % of control; read-out: Percent Control (100 uM Levosimendan)
Summary of the method: as §1

[13] = molecular target: NEK5 (Homo sapiens, UniProt Q6P3R8); conditions: competition binding, % of control; read-out: Percent Control (100 uM Levosimendan)
Summary of the method: as §1

[14] = molecular target: T3, DMPK2 (Homo sapiens, UniProt Q6DT37); conditions: competition binding, % of control; read-out: Percent Control (100 uM Levosimendan)
T3 construct: gene CDC42BPG
Summary of the method: as §1

[15] = molecular target: T4, PFTK1 (Homo sapiens, UniProt O94921); conditions: competition binding, % of control; read-out: Percent Control (100 uM Levosimendan)
T4 construct: gene CDK14
Summary of the method: as §1

[16] = molecular target: T5, MST3 (Homo sapiens, UniProt Q9Y6E0); conditions: competition binding, % of control; read-out: Percent Control (100 uM Levosimendan)
T5 construct: gene STK24
Summary of the method: as §1

[17] = molecular target: T6, QSK (Homo sapiens, UniProt Q9Y2K2); conditions: competition binding, % of control; read-out: Percent Control (100 uM Levosimendan)
T6 construct: gene SIK3
Summary of the method: as §1

[18] = molecular target: MKNK2 (Homo sapiens, UniProt Q9HBH9); conditions: competition binding, % of control
Summary of the method: as §1

[19] = molecular target: FLT3-autoinhibited (Homo sapiens, UniProt P36888); conditions: competition binding, % of control; read-out: Percent Control (100 uM Levosimendan)
Summary of the method: as §1

[20] = read-out: Percent Control (10 uM Levosimendan)
[21] = read-out: Percent Control (100 uM Levosimendan)

MKNK2, sequence (Q9HBH9 whole entry): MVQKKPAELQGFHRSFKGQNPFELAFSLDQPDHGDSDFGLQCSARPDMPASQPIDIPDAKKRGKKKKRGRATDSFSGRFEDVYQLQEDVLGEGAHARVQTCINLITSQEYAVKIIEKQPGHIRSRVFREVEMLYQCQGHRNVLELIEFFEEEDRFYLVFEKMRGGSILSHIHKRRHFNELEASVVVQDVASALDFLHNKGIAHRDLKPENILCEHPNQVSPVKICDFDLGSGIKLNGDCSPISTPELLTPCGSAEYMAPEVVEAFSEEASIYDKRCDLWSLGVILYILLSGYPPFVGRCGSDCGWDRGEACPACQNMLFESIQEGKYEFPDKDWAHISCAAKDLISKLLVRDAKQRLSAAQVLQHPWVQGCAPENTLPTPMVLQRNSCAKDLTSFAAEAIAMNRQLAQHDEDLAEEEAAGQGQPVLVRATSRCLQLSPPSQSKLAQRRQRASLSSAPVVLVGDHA
CAMKK1, sequence (Q8N5S9 whole entry): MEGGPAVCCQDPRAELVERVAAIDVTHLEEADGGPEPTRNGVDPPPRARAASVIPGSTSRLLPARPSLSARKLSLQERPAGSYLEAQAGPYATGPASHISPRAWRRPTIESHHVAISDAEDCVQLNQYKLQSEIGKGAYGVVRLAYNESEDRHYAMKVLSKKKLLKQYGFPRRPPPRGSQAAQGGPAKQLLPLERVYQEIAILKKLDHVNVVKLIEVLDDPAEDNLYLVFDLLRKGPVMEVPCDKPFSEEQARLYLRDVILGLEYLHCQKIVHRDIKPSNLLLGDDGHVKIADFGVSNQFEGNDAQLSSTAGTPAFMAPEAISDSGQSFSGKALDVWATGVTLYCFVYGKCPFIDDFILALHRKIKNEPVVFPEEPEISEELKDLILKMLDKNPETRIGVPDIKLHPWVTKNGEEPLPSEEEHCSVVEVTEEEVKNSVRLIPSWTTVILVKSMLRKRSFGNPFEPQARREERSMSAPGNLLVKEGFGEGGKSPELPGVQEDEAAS
NEK5, sequence (Q6P3R8 whole entry): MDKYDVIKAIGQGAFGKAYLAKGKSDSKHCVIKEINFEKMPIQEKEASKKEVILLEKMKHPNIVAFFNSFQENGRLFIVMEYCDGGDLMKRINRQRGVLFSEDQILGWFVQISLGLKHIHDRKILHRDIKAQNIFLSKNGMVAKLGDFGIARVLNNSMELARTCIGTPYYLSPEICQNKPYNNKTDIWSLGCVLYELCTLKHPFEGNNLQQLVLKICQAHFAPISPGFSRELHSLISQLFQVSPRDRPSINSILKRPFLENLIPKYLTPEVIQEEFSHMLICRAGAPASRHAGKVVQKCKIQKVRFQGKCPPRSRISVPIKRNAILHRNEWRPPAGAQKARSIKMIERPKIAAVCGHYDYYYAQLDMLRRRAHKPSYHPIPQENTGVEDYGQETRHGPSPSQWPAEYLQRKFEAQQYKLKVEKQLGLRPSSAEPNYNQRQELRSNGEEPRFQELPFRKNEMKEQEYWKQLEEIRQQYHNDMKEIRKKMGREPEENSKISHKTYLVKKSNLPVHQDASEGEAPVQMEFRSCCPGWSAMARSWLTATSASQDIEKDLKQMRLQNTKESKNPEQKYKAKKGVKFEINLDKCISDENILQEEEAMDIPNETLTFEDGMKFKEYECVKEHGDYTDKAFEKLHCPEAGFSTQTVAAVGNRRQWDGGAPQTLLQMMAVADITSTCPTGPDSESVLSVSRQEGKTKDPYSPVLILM
T3 sequence (Q6DT37 whole entry): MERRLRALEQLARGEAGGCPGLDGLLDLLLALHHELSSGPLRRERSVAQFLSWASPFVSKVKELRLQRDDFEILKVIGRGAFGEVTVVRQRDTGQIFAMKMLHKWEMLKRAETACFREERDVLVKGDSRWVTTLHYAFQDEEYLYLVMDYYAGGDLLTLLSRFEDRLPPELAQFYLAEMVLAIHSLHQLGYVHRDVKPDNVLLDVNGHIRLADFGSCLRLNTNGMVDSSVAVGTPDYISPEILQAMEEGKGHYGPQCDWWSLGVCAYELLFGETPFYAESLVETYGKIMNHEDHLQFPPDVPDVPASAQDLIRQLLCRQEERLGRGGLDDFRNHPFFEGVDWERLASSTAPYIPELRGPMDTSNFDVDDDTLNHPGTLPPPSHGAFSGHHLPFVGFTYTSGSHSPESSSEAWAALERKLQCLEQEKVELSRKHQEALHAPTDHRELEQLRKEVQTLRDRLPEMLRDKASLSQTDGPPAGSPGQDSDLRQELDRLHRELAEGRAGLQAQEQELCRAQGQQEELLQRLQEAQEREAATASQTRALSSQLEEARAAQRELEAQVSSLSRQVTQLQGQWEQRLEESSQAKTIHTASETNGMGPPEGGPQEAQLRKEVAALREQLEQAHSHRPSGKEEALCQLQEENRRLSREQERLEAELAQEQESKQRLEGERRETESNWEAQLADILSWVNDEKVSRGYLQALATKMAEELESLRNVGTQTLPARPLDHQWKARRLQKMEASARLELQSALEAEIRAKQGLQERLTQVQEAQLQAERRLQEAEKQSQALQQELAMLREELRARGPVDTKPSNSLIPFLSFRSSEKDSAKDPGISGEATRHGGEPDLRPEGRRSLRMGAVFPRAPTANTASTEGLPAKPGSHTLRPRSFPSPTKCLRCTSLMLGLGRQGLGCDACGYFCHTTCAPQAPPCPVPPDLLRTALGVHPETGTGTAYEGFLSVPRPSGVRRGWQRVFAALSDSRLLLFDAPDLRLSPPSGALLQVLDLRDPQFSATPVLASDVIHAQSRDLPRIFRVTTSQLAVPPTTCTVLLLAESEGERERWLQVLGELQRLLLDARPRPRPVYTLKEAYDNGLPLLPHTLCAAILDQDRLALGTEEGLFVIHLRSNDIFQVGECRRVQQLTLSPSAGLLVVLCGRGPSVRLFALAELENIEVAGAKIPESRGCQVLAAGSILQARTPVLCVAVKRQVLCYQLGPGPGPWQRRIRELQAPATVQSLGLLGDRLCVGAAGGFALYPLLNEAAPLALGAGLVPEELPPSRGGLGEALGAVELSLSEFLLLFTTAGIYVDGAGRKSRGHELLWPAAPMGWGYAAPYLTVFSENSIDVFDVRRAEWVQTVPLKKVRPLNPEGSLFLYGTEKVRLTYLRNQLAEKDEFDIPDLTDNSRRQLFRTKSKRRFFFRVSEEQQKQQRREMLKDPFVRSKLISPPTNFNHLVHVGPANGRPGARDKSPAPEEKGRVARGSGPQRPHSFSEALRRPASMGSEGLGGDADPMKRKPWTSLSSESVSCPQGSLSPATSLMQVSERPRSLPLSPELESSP
NEK1, sequence (Q96PY6 whole entry): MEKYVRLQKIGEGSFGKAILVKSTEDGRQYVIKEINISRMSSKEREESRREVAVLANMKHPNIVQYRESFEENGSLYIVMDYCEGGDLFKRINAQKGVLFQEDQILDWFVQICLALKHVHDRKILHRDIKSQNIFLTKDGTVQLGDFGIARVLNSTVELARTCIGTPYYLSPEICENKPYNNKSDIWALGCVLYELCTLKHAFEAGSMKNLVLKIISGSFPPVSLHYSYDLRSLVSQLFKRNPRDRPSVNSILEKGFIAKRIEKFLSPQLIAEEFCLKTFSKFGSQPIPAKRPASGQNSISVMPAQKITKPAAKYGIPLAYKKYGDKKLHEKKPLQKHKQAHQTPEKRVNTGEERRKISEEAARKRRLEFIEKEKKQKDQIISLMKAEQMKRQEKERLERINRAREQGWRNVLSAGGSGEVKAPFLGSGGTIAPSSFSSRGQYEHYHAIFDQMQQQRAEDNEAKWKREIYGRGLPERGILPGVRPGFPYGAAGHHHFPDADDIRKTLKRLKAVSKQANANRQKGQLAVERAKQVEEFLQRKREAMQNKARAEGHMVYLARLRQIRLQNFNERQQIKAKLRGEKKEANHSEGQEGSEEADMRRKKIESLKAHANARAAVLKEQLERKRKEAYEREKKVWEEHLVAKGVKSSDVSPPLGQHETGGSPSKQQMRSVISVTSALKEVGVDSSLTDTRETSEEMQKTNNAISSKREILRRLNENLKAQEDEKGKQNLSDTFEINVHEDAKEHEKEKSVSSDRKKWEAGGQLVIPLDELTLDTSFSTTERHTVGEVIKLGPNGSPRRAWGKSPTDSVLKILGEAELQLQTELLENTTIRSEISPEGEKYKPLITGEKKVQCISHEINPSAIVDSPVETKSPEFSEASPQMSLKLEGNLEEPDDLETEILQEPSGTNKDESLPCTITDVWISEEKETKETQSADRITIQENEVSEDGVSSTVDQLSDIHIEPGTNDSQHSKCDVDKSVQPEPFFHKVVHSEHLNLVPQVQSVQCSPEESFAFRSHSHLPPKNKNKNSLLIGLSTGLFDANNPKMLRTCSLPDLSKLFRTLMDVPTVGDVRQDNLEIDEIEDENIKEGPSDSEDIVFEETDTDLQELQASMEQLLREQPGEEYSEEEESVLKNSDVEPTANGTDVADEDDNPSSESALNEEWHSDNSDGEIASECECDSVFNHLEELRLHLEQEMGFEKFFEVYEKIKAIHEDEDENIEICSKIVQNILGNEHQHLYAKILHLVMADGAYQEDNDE
TXK, sequence (P42681 whole entry): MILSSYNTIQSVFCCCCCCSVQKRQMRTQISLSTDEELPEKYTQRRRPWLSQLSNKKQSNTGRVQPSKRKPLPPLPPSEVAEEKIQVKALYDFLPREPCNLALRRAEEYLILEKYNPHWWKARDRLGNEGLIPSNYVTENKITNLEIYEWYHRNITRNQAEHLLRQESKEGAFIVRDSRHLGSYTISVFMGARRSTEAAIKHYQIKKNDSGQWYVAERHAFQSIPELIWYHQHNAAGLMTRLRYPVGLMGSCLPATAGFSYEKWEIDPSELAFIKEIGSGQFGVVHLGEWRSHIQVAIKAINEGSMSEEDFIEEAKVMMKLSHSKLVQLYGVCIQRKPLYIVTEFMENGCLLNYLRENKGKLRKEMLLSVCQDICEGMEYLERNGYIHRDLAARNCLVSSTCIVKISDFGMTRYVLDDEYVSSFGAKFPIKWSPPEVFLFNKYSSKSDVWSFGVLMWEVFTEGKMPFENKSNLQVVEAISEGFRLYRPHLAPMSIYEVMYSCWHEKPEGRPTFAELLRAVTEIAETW

remaining binding at 100 µM [1]: 96%
remaining binding at 100 µM [2]: 59%
remaining binding at 100 µM [3]: 100%
remaining binding at 100 µM [4]: 76%
remaining binding at 100 µM [5]: 60%
remaining binding at 100 µM [6]: 100%
remaining binding at 10 µM [7, 20]: 82%
remaining binding at 100 µM [7, 21]: 51%
remaining binding at 100 µM [8]: 85%
remaining binding at 100 µM [9]: 92%
remaining binding at 100 µM [10]: 100%
remaining binding at 100 µM [11]: 67%
remaining binding at 100 µM [12]: 89%
remaining binding at 100 µM [13]: 86%
remaining binding at 100 µM [14]: 70%
remaining binding at 100 µM [15]: 67%
remaining binding at 100 µM [16]: 96%
remaining binding at 100 µM [17]: 82%
remaining binding at 10 µM [18, 20]: 59%
remaining binding at 100 µM [18, 21]: 7.5%
remaining binding at 100 µM [19]: 98%
SMILES: C[C@@H]1CC(=O)NN=C1c1ccc(NN=C(C#N)C#N)cc1 [levosimendan]
